Assay results from ChEMBL document CHEMBL5120922, “Discovery, Optimization, and Evaluation of Potent and Selective PI3Kδ-γ Dual Inhibitors for the Treatment of B-cell Malignancies” (J Med Chem, 2022).

Assays:
[1] = target: Phosphatidylinositol 4,5-bisphosphate 3-kinase catalytic subunit beta isoform (Homo sapiens, UniProt P42338); experiment: Inhibition of N-terminal His6-tagged recombinant full length human PI3Kbeta expressed in baculovirus infected Sf21 insect cells at 1 uM by HTRF assay relative to control
[2] = target: T1, Phosphatidylinositol 4,5-bisphosphate 3-kinase catalytic subunit delta isoform (Homo sapiens) (UniProt O00329); experiment: Inhibition of N-terminal His6-tagged recombinant full length human PI3Kdelta expressed in baculovirus infected Sf21 insect cells at 1 uM by HTRF assay relative to control
T1 sequence (whole entry): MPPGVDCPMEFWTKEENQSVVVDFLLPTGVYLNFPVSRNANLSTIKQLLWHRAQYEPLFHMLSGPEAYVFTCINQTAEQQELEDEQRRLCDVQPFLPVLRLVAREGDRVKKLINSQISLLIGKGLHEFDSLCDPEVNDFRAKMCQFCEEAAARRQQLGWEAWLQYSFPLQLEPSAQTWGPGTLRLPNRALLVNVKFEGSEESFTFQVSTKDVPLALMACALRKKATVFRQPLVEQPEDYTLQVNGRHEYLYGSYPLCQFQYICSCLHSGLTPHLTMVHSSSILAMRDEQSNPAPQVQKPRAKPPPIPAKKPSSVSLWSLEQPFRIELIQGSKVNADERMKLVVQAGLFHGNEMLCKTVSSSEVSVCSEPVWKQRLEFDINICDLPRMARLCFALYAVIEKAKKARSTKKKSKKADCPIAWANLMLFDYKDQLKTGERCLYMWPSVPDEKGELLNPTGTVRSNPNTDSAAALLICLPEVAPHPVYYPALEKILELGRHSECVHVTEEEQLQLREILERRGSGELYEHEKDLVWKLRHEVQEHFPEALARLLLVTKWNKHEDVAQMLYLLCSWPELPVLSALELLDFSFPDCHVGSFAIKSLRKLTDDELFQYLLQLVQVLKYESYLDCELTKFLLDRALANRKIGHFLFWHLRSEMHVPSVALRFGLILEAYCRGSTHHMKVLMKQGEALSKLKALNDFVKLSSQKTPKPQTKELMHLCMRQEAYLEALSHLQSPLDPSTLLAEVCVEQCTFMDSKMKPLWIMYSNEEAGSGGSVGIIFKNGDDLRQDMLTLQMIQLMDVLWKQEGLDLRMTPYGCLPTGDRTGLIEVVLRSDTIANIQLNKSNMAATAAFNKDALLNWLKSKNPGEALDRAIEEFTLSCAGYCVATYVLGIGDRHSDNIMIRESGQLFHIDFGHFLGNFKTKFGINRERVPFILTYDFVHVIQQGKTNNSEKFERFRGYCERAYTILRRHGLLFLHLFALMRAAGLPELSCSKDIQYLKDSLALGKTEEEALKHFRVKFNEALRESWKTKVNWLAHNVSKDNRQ

[3] = target: T2, Phosphatidylinositol 4,5-bisphosphate 3-kinase catalytic subunit gamma isoform (Homo sapiens, UniProt P48736); experiment: Inhibition of N-terminal His6-tagged recombinant full length human PI3Kgamma expressed in baculovirus infected Sf21 insect cells at 1 uM by HTRF assay relative to control
[4] = target: Phosphatidylinositol 4,5-bisphosphate 3-kinase catalytic subunit alpha isoform (Homo sapiens, UniProt P42336); experiment: Inhibition of N-terminal His6-tagged recombinant full length human PI3Kalpha expressed in baculovirus infected Sf21 insect cells at 1 uM by HTRF assay relative to control
[5] = test system: DOHH-2; experiment: Antiproliferative activity against human DOHH-2 cells assessed as cell growth inhibition measured after 72 hrs by MTT assay; format: functional, cell-based; conditions: DOHH-2, 72 h
[6] = test system: SUD4; experiment: Antiproliferative activity against human SU-DHL-4 cells assessed as cell growth inhibition measured after 72 hrs by MTT assay; format: functional, cell-based; conditions: SU-DHL-4, 72 h
[7] = target: T2, Phosphatidylinositol 4,5-bisphosphate 3-kinase catalytic subunit gamma isoform; experiment: Inhibition of N-terminal His6-tagged recombinant full length human PI3Kgamma expressed in baculovirus infected Sf21 insect cells at 0.1 uM by HTRF assay relative to control
[8] = target: T1, Phosphatidylinositol 4,5-bisphosphate 3-kinase catalytic subunit delta isoform (Homo sapiens); experiment: Inhibition of N-terminal His6-tagged recombinant full length human PI3Kdelta expressed in baculovirus infected Sf21 insect cells at 0.1 uM by HTRF assay relative to control
[9] = test system: SU-DHL-6; experiment: Antiproliferative activity against human SU-DHL-6 cells assessed as cell growth inhibition measured after 72 hrs by MTT assay; format: functional, cell-based; conditions: SU-DHL-6, 72 h
[10] = Metabolic stability in human liver microsomes assessed as clearance at 1 uM measured upto 60 mins in presence of NADPH by measuring protein; format: ADME, Microsome; conditions: 1 h
[11] = Metabolic stability in human liver microsomes assessed as compound remaining at 1 uM measured upto 60 mins in presence of NADPH; format: ADME, Microsome; conditions: read-out: Stability
[12] = Metabolic stability in human liver microsomes assessed as half life at 1 uM measured upto 60 mins in presence of NADPH; format: ADME, Microsome

T2 sequence (P48736 whole entry, looked up, canonical isoform): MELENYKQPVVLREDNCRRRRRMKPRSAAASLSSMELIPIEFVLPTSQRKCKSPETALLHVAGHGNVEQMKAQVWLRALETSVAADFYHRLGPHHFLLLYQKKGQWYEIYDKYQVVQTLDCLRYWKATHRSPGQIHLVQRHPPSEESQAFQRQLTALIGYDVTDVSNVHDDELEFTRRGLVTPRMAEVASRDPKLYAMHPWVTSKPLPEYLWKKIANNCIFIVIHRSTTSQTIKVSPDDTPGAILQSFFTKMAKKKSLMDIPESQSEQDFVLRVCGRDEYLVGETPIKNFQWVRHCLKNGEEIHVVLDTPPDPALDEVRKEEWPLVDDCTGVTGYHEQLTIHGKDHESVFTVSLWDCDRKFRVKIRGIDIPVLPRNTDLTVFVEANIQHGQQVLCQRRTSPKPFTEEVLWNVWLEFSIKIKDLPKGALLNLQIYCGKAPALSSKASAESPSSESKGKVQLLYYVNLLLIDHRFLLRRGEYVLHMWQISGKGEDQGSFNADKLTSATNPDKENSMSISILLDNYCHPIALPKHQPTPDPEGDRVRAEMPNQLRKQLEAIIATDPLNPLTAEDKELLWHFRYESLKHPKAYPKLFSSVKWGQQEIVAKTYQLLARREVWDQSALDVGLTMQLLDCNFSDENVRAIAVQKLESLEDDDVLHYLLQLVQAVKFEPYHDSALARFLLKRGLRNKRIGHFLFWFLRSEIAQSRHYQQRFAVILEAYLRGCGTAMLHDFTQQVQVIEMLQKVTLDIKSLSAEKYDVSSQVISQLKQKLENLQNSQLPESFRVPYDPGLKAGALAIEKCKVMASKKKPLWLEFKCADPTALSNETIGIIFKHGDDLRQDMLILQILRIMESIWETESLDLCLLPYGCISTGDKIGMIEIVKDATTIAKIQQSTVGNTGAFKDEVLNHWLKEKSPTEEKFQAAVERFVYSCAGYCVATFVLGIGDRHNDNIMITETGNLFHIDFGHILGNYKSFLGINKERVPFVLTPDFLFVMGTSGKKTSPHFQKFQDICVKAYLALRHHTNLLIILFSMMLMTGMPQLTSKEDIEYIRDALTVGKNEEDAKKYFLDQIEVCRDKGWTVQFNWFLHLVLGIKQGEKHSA
Sequence of Phosphatidylinositol 4,5-bisphosphate 3-kinase catalytic subunit beta isoform (P42338 whole entry, looked up, canonical isoform): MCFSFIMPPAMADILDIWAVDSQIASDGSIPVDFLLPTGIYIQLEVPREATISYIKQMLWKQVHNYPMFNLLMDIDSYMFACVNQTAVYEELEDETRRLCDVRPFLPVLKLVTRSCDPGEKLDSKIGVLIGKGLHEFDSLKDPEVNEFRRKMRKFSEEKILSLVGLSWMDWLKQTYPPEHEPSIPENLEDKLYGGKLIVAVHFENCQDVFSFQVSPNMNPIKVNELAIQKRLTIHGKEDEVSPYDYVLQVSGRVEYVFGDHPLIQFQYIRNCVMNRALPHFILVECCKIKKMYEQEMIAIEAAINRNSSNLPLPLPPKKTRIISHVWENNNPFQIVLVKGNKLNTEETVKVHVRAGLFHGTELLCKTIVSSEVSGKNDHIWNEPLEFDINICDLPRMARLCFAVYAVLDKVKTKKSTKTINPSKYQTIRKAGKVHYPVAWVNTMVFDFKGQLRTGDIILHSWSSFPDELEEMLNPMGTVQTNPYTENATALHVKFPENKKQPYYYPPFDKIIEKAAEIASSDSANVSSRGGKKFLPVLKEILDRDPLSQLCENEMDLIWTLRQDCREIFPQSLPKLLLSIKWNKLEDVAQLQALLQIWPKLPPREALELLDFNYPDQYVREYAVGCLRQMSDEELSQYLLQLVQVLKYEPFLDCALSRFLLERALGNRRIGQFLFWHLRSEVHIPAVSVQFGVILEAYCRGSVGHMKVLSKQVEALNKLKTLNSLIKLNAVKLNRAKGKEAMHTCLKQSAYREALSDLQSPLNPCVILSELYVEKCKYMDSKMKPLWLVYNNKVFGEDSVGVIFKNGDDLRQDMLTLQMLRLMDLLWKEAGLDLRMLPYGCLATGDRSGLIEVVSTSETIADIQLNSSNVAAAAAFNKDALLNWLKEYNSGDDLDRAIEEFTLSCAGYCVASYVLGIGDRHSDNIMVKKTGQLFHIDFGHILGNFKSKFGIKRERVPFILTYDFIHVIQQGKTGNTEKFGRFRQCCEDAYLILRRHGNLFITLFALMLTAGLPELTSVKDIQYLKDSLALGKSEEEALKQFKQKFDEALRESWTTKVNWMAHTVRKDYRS
Sequence of Phosphatidylinositol 4,5-bisphosphate 3-kinase catalytic subunit alpha isoform (P42336 whole entry, canonical isoform): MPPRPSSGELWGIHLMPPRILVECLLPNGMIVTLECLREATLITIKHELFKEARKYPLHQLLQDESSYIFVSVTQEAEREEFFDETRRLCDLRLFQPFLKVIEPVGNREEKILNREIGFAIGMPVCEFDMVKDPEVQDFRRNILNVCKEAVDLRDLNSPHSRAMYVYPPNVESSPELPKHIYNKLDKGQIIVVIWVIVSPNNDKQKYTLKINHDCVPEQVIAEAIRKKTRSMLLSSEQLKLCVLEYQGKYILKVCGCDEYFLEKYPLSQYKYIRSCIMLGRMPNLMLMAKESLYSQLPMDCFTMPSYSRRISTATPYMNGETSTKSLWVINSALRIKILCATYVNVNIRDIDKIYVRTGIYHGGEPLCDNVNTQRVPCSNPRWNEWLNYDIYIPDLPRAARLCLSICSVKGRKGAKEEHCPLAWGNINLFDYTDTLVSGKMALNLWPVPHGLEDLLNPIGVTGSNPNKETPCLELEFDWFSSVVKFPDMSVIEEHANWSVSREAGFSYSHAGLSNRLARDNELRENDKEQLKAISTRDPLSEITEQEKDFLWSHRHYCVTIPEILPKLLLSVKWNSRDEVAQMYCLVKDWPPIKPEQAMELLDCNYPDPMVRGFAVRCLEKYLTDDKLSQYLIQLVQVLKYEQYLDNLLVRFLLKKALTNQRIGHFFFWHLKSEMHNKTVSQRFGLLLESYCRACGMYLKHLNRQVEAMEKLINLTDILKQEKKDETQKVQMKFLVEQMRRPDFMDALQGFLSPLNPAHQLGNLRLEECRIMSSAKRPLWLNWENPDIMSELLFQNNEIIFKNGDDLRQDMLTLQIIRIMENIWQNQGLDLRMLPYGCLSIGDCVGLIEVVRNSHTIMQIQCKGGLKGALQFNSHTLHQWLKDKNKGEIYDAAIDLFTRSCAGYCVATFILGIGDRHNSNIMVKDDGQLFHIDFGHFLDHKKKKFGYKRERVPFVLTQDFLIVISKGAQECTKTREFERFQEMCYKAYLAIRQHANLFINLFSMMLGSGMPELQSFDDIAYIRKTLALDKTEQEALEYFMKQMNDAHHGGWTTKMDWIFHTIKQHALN

Row | Compound | inhibition [1] | inhibition [2] | inhibition [3] | inhibition [4] | IC50 [5] | IC50 [6] | inhibition [7] | inhibition [8] | IC50 [9] | CLH [10] | remaining at 1 h, 1 µM [11] | half-life at 1 µM [12]
1 | C[C@H]1CC[C@@H](c2nc3cccc(Cl)c3c(=O)n2-c2cc(F)cc(F)c2)N1c1nc(N)nc2[nH]cnc12 | 68% | 7% | 2% | 90% | 2210 nM | 770 nM | 51% | 12% | 840 nM | – | – | –
2 | C[C@H]1CC[C@@H](c2nc3cccc(Cl)c3c(=O)n2-c2cc(F)cc(F)c2)N1c1nc(N)nc(N)c1C#N | 43% | 1% | -8% | 66% | 1170 nM | 360 nM | 14% | 4% | 580 nM | – | – | –
3 | C[C@H]1CC[C@@H](c2nc3cccc(Cl)c3c(=O)n2-c2cccnc2)N1c1nc(N)nc2[nH]cnc12 | 54% | 7% | 0% | 89% | 650 nM | 510 nM | 39% | 15% | 410 nM | – | – | –
4 | C[C@H]1CC[C@@H](c2nc3cccc(-c4cccnc4)c3c(=O)n2-c2ccccc2)N1c1nc(N)nc(N)c1C#N | 19% | – | – | -7% | 1010 nM | 120 nM | 25% | – | 280 nM | 37.4 mL/min/g | 32.6% | 0.618 h
5 | CCn1cc(-c2cccc3nc([C@@H]4CC[C@H](C)N4c4nc(N)nc(N)c4C#N)n(-c4ccccc4)c(=O)c23)cn1 | 6% | – | – | 1% | 740 nM | 290 nM | -10% | -4% | 530 nM | 17.4 mL/min/g | 60% | 1.33 h
6 | C[C@H]1CC[C@@H](c2nc3cccc(C#Cc4cccnc4)c3c(=O)n2-c2ccccc2)N1c1nc(N)nc(N)c1C#N | 13% | – | – | 8% | 690 nM | 240 nM | 31% | 4% | 320 nM | 8 mL/min/g | 78.1% | 2.89 h
7 | C[C@H]1CC[C@@H](c2nc3cccc(Cl)c3c(=O)n2-c2ccccc2)N1c1nc(N)nc2[nH]cnc12 | 31% | -2% | – | 78% | 280 nM | 180 nM | 30% | 18% | 250 nM | 11.4 mL/min/g | 75.5% | 2.03 h
8 | CC(C)n1cc(-c2cccc3nc([C@@H]4CC[C@H](C)N4c4nc(N)nc(N)c4C#N)n(-c4ccccc4)c(=O)c23)cn1 | 28% | – | – | 12% | 540 nM | 210 nM | 10% | 1% | 320 nM | 29.6 mL/min/g | 40.4% | 0.78 h
9 | C[C@H]1CC[C@@H](c2nc3cccc(Cl)c3c(=O)n2-c2ccccc2)N1c1nc(F)nc2[nH]cnc12 | -1% | 13% | 34% | 49% | 910 nM | 730 nM | 76% | 27% | 490 nM | – | – | –
10 | C[C@H]1CC[C@@H](c2nc3cccc(-c4cnn(C)c4)c3c(=O)n2-c2ccccc2)N1c1nc(N)nc(N)c1C#N | 20% | – | – | -1% | 680 nM | 300 nM | 12% | -8% | 420 nM | 13.8 mL/min/g | 64.7% | 1.67 h
11 | CCCn1cc(-c2cccc3nc([C@@H]4CC[C@H](C)N4c4nc(N)nc(N)c4C#N)n(-c4ccccc4)c(=O)c23)cn1 | 13% | – | – | 5% | 690 nM | 330 nM | 2% | -2% | 390 nM | 16.8 mL/min/g | 51.2% | 1.38 h
12 | Cc1cc(N2[C@@H](C)CC[C@H]2c2nc3cccc(Cl)c3c(=O)n2-c2ccccc2)nc(N)n1 | 105% | 75% | 96% | 96% | 1960 nM | 1120 nM | 99% | 93% | 1530 nM | – | – | –
13 | N#Cc1c(N)nc(N)nc1N1[C@H](c2nc3cccc(F)c3c(=O)n2-c2cc(F)cc(F)c2)C[C@@H]2CCCC[C@@H]21 | 98% | 23% | 75% | 84% | 2470 nM | 1450 nM | 93% | 82% | 1480 nM | – | – | –
14 | CCOc1cncc(-c2cccc3nc([C@@H]4CC[C@H](C)N4c4nc(N)nc(N)c4C#N)n(-c4ccccc4)c(=O)c23)c1 | -3% | – | – | – | 210 nM | 110 nM | -8% | -6% | 430 nM | 28.4 mL/min/g | 46.1% | 0.813 h
15 | C[C@H]1CC[C@@H](c2nc3cccc(Cl)c3c(=O)n2N2CCOCC2)N1c1nc(N)nc(N)c1C#N | 33% | 11% | 0% | 72% | 370 nM | 200 nM | 10% | 10% | 310 nM | – | – | –
16 | C[C@H]1CC[C@@H](c2nc3cccc(Cl)c3c(=O)n2N2CCOCC2)N1c1nc(N)nc2[nH]cnc12 | 53% | 5% | -2% | 91% | 1440 nM | 600 nM | 45% | 81% | 420 nM | – | – | –
17 | C[C@H]1CC[C@@H](c2nc3cccc(Cl)c3c(=O)n2-c2ccccc2)N1c1ccnc(N)n1 | 106% | 11% | 100% | 78% | 3970 nM | 1200 nM | 99% | 88% | 1840 nM | – | – | –
18 | C[C@H]1CC[C@@H](c2nc3cccc(Cl)c3c(=O)n2-c2ccccc2)N1c1cc(Cl)nc(N)n1 | 92% | 23% | 96% | 88% | 2920 nM | 2900 nM | 97% | 76% | 3150 nM | – | – | –
19 | C[C@H]1CC[C@@H](c2nc3cccc(-c4cnn(C5CC5)c4)c3c(=O)n2-c2ccccc2)N1c1nc(N)nc(N)c1C#N | 2% | – | – | 23% | 390 nM | 220 nM | -2% | 0% | 260 nM | 17.8 mL/min/g | 45% | 1.3 h
20 | COc1cncc(-c2cccc3nc([C@@H]4CC[C@H](C)N4c4nc(N)nc(N)c4C#N)n(-c4ccccc4)c(=O)c23)c1 | 19% | – | – | 13% | 290 nM | 120 nM | 12% | – | 190 nM | 20.8 mL/min/g | 59.9% | 1.11 h
